SMILES strings stand for the structures. Like-named read-outs stand apart in the source and are kept apart here. Where only a bound is given, the exact number is not on record here.

Consider seven compounds from US20240423207A1, “PICOLINAMIDE COMPOUNDS WITH FUNGICIDAL ACTIVITY” (CORTEVA AGRISCIENCE LLC, priority 2014, published 2024).

In data set [1] the test system is Mycosphaerella graminicola; Anamorph: Septoria tritici. The experiment in a line: Leaf Blotch of Wheat (SEPTTR) fungicidal activity on wheat seedlings. The format is in vivo. The conditions noted are these: Zymoseptoria tritici; for pest or weed control at 121.5 g/ha: Low Volume, 121.5 g/H; for pest or weed control at 100 ppm: High Volume. An outline of the steps:
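Compounds in acetone were diluted with nine volumes of water containing 110 ppm Triton X-100, or as EC formulations with 0.1% Trycol 5941 for track spray. They were sprayed on first-leaf Yuma wheat seedlings inoculated with S. tritici before or after treatment. Plants spent 1 day dark and 2–3 days lit at 100% RH, 20 °C. Severity (0–100%) was scored once untreated plants were fully diseased; control was computed relative to untreated plants.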

For data set [2], the system named is Puccinia triticina; Synonym: Puccinia recondita f sp. tritici. Kind of data set: Wheat Brown Rust (PUCCRT) fungicidal activity on wheat seedlings. The format is in vivo. Particulars: for pest or weed control at 100 ppm: High Volume; for pest or weed control at 121.5 g/ha: Low Volume, 121.5 g/H. An outline of the steps:
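Yuma wheat seedlings (first leaf emerged) were sprayed to run-off with compound in acetone/water 1:9 (110 ppm Triton X-100), and P. triticina spores were inoculated before or after treatment. Plants were kept overnight in a 22 °C dark dew room at 100% RH, then moved to a 24 °C greenhouse; % control was based on first-leaf severity (0–100%) versus untreated plants.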

[3] abbreviates: 24 h, 1 Day Protectant, read-out: SEPTTR 1DP disease control.
The mark [4] stands for this setting: 72 h, 3 Day Curative, read-out: SEPTTR 3DC disease control.
Setting [5] is: 24 h, 1 Day Protectant, read-out: PUCCRT 1DP disease control.
Setting [6] is: 72 h, 3 Day Curative, read-out: PUCCRT 3DC disease control.

In the case of `COc1ccnc(C(=O)N[C@@H](C)C(=O)O[C@@H](C)C(c2ccc(F)cc2)c2ccc(F)cc2)c1OC(=O)C(C)(C)C` [Cmpd 207], the melting point (as a rule, the temperature, or range, at which the solid turns liquid) lay within 52 to 65 °C. In data set [1] (setting [3]), the pest or weed control at 121.5 g/ha was greater than 80%. Further, in data set [1] (setting [4]), the pest or weed control at 121.5 g/ha is greater than 80%.

As to `COc1ccnc(C(=O)N[C@@H](C)C(=O)O[C@@H](C)C(c2ccc(F)c(Cl)c2)c2ccc(F)c(Cl)c2)c1O` [Cmpd 132], the pest or weed control at 100 ppm is greater than 80% in data set [2] (setting [5]), less than 80% in data set [2] (setting [6]), greater than 80% in data set [1] (setting [3]) and greater than 80% in data set [1] (setting [4]).

On to `C[C@H](NC(=O)c1ncccc1O)C(=O)O[C@@H](C)C(c1ccc(F)cc1)c1ccc(F)cc1` [Cmpd 110], for which the pest or weed control at 100 ppm in data set [2] (setting [5]), in data set [1] (setting [3]) and in data set [1] (setting [4]) was greater than 80% each time.

For the compound `COc1ccnc(C(=O)N[C@@H](C)C(=O)O[C@@H](C)C(OC)(c2ccccc2)c2ccccc2)c1OCOC(C)=O` [Cmpd 149], the pest or weed control at 121.5 g/ha was less than 80% in data set [2] (setting [5]), less than 80% in data set [2] (setting [6]), greater than 80% in data set [1] (setting [3]) and greater than 80% in data set [1] (setting [4]).

As to `COc1ccnc(C(=O)N[C@@H](C)C(=O)O[C@@H](C)C(c2ccc(F)cc2)c2ccc(F)cc2)c1OC(=O)C1CC1` [Cmpd 210], the pest or weed control at 121.5 g/ha in data set [2] (setting [5]) was greater than 80%; in data set [2] (setting [6]), less than 80%; in data set [1] (setting [3]), greater than 80%; in data set [1] (setting [4]) it was greater than 80%.

As for `COc1ccnc(C(=O)N[C@@H](C)C(=O)O[C@@H](C)C(c2ccc(C)s2)c2ccc(C)s2)c1O` [Cmpd 104], the pest or weed control at 100 ppm in data set [2] (setting [5]) is greater than 80%; in data set [1] (setting [3]) it was less than 80%; in data set [1] (setting [4]) it was greater than 80%.

As for `COc1ccnc(C(=O)N[C@@H](C)C(=O)O[C@@H](C)C(F)(c2ccccc2)c2ccccc2)c1O` [Cmpd 97], the pest or weed control at 100 ppm was less than 80% in data set [2] (setting [5]), greater than 80% in data set [1] (setting [3]) and greater than 80% in data set [1] (setting [4]).
